This passage reports Ki results from US5459152A, “Platelet activating factor antagonists” (Abbott Laboratories, priority 1993, dated 1995).

Structures are written as SMILES. Counter-ions that a name gives are not always drawn.

T1 sequence (G1TEI7 1-342): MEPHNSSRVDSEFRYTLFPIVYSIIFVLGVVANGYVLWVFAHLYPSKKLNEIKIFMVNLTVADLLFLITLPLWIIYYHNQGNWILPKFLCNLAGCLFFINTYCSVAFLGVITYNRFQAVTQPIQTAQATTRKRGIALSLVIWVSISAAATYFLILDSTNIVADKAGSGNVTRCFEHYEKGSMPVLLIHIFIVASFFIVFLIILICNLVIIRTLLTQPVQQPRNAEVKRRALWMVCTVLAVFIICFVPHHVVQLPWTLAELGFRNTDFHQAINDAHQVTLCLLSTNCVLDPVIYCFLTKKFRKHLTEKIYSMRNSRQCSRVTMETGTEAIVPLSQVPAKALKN

One assay concerns the target T1, PAF receptor (Oryctolagus cuniculus, UniProt G1TEI7).
T1 construct: platelet membranes where prepared by centrifugation and washing; tissue Pel-Freez (Rogers, AR) (whole rabbit blood); host or cells: rabbit platelet membranes
Put plainly: PAF receptor binding assay ([3H]C18-PAF, rabbit platelet membranes). Particulars: inhibition of specific binding of 0.6 nM [3H]C18-PAF to rabbit platelet membranes, 60 min, room temperature; Ki calculated from IC50 by Cheng and Prusoff; read-out: PAF Receptor Binding Activity K1. As to the method: The ability of representative compounds of the present invention to inhibit PAF activity was determined in an in vitro test using the following method.
Citrated whole rabbit blood was obtained from Pel-Freez (Rogers, AR). Rabbit platelets where prepared by centrifugation and washing. The platelets where lysed by freeze-thawing and sonication; platelet membranes where prepared by centrifugation and washing. Final membrane preparations where stored frozen in 10 mM Tris/5 mM MgCl2 /2 mM EDTA (TME buffer, pH 7.0) with 0.25 M sucrose added for membrane stabilization.
The final volume of the assay was 100 μl. The assay was conducted in Millititre-GV™ (Millipore Corp.) filtration plates; incubation time was for 60 minutes at room temperature (22°-23° C.). "Specific binding" was operationally defined as the arithmetic difference between "total binding" of 0.6 nM [^3 H]C18 -PAF (in the absence of added PAF) and "nonspecific binding" (in the presence of 1 μM PAF). After the prescribed incubation, platelet membranes where filtered under vacuum and washed with 1 millilitre of "binding buffer". The filters was dried and removed. The bound radioactivity was quantitated with a Berthold TLC-Linear Analyzer model LB2842.
Experiments where repeated at least once.
With `COc1ccc(-c2ccc3c(C(=O)c4ccn5c4CSC5c4cccnc4)cn(C(=O)N(C)C)c3c2)cc1` (stereo not drawn) [Example 40, 3-(Pyridin-3-yl)-7-[1-N,N-dimethylcarbamoyl-6-(4-methoxyphenyl)indol-3-ylcarbonyl]-1H,3H-pyrrolo[1,2-c]thiazole], the Ki was 26 nM. Same read-out and setting: then `CC(C)(C)OC(=O)NCCn1cc(C(=O)c2ccn3c2CSC3c2cccnc2)c2ccc(-c3ccc(F)cc3)cc21` (stereo not drawn) [Example 57], with 38 nM; and `NCCn1cc(C(=O)c2ccn3c2CSC3c2cccnc2)c2ccc(-c3ccc(F)cc3)cc21` (stereo not drawn) [Example 70, 3-(Pyridin-3-yl)-7-[1-(2-aminoethyl)-6-(4-fluorophenyl)indol-3-ylcarbonyl]-1H,3H-pyrrolo[1,2-c]thiazole Hydrochloride], with 2.6 nM.

The same assay, now with this note: read-out: PAF Receptor Binding Activity K1.
Turning to `CN(C)C(=O)n1cc(C(=O)c2ccn3c2CSC3c2ccc[n+]([O-])c2)c2ccc(-c3ccccc3)cc21` (stereo not drawn) [Example 34, 3-(1-Oxide-pyridin-3-yl)-7-(1-N,N-dimethylcarbamoyl-6-phenylindol-3-ylcarbonyl)-1H,3H-pyrrolo[1,2-c]thiazole], the Ki was 14 nM. Consider `CNC(=O)n1cc(C(=O)c2ccn3c2CSC3c2ccc[n+]([O-])c2)c2ccc(-c3ccccc3)cc21` (stereo not drawn) [Example 35, 3-(1-Oxide-pyridin-3-yl)-7-(1-N-methylcarbamoyl-6-phenylindol-3-ylcarbonyl)-1H,3H-pyrrolo[1,2-c]thiazole], for which the Ki turned out to be 44 nM. As for `CC1(C)SC(c2cccnc2)n2ccc(C(=O)c3c[nH]c4cc(-c5ccc(F)cc5)ccc34)c21` (stereo not drawn) [Example 36, 1,1-Dimethyl-3-(pyridin-3-yl)-7-[6-(4-fluorophenyl)indol-3-ylcarbonyl]-1H,3H-pyrrolo[1,2-c]thiazole], the Ki came out at 1100 nM. Still for that read-out and setting: then `NC(=O)n1cc(C(=O)c2ccn3c2CSC3c2cccnc2)c2ccc(OCc3ccccc3)cc21` (stereo not drawn) [Example 37, 3-(Pyridin-3-yl)-7-(1-carbamoyl-6-phenylmethoxyindol-3-ylcarbonyl)-1H,3H-pyrrolo[1,2-c]thiazole], with 10 nM; and `COc1ccc(-c2ccc3c(C(=O)c4ccn5c4CSC5c4cccnc4)c[nH]c3c2)cc1` (stereo not drawn) [Example 38, 3-(Pyridin-3-yl)-7-[6-(4-methoxyphenyl)indol-3-yl]carbonyl-1H,3H-pyrrolo[1,2-c]thiazole], with 1000 nM.

In the case of `O=C(c1ccn2c1CSC2c1cccnc1)c1c[nH]c2cc(-c3cccnc3)ccc12` (stereo not drawn) [Example 41], the Ki was determined as 2000 nM. On to `CNC(=O)n1cc(C(=O)c2ccn3c2CSC3c2cccnc2)c2ccc(-c3ccc(OC)cc3)cc21` (stereo not drawn) [Example 43, 3-(Pyridin-3-yl)-7-[1-N-methylcarbamoyl-6-(4-methoxyphenyl)indol-3-ylcarbonyl]-1H,3H-pyrrolo[1,2-c]thiazole], for which the Ki worked out at 26 nM. Take `CN(C)C(=O)n1cc(C(=O)c2ccn3c2CSC3c2ccc[n+]([O-])c2)c2ccccc21` (stereo not drawn) [Example 44, 3-(1-Oxide-pyridin-3-yl)-7-(1-N,N-dimethylcarbamoylindol-3-ylcarbonyl)-1H,3H-pyrrolo[1,2-c]thiazole]: the Ki was determined as 40 nM. Turning to `COc1ccc(-c2ccc3c(C(=O)c4ccn5c4CSC5c4ccc[n+]([O-])c4)cn(C(=O)N(C)C)c3c2)cc1` (stereo not drawn) [Example 45, 3-(1-Oxide-pyridin-3-yl)-7-[1-N,N-dimethylcarbamoyl-6-(4-methoxyphenyl)indol-3-ylcarbonyl]-1H,3H-pyrrolo[1,2-c]thiazole], the Ki amounted to 4.1 nM. Consider `COC(=O)CCn1cc(C(=O)c2ccn3c2CSC3c2cccnc2)c2ccc(-c3ccc(F)cc3)cc21` (stereo not drawn) [Example 46, 3-(Pyridin-3-yl)-7-[1-(2-carbomethoxyethyl)-6-(4-fluorophenyl)indol-3-ylcarbonyl]-1H,3H-pyrrolo[1,2-c]thiazole], for which the Ki was determined as 10 nM.

`O=C(c1ccn2c1CSC2c1cccnc1)c1c[nH]c2cc(Cl)ccc12` (stereo not drawn) [Example 47, 3-(Pyridin-3-yl)-7-(6-chloroindol-3-ylcarbonyl)-1H,3H-pyrrolo[1,2-c]thiazole]: the Ki amounted to 590 nM. Same read-out and setting: then `COc1cc(-c2ccc3c(C(=O)c4ccn5c4CSC5c4cccnc4)cn(C(=O)N(C)C)c3c2)cc(OC)c1OC` (stereo not drawn) [Example 48, 3-(Pyridin-3-yl)-7-[1-N,N-dimethylcarbamoyl-6-(3,4,5-trimethoxyphenyl)indol-3-ylcarbonyl]-1H,3H-pyrrolo[1,2-c]thiazole], with 8 nM; and `CS(=O)(=O)n1cc(C(=O)c2ccn3c2CSC3c2cccnc2)c2ccc(-c3ccc(F)cc3)cc21` (stereo not drawn) [Example 51, 3-(Pyridin-3-yl)-7-[1-methanesulfonyl-6-(4-fluorophenyl)indol-3-ylcarbonyl]-1H,3-pyrrolo[1,2-c]thiazole], with 120 nM; and `CN(C)C(=O)n1cc(C(=O)c2ccn3c2CSC3c2cccnc2)c2ccc(-c3ccccc3)cc21` (stereo not drawn) [Example 52, 3-(Pyridin-3-yl)-7-(1-N,N-dimethylcarbamoyl-6-phenylindol-3-ylcarbonyl)-1H,3H-pyrrolo[1,2-c]thiazole Hydrochloride], with 16 nM. Still for that read-out and setting: then `CN(C)C(=O)Cn1cc(C(=O)c2ccn3c2CSC3c2cccnc2)c2ccc(-c3ccc(F)cc3)cc21` (stereo not drawn) [Example 53, 3-(Pyridin-3-yl)-7-[1-(2-N,N-dimethylcarbamoylmethyl)-6-(4-fluorophenyl)indol-3-ylcarbonyl]-1H,3H-pyrrolo[1,2-c]thiazole], with 0.7 nM; and `CN(C)C(=O)n1cc(C(=O)c2ccn3c2CSC3c2ccc[n+]([O-])c2)c2ccc(-c3ccccc3)cc21` (stereo not drawn) [Example 54, 3-(1-Oxide-pyridin-3-yl)-7-(1-N,N-dimethylcarbamoyl-6-phenylindol-3-ylcarbonyl)-1H,3H-pyrrolo[1,2-c]thiazole hydrochloride], with 17 nM.

With `Cn1cc(C(=O)c2ccn3c2CSC3c2ccc[n+]([O-])c2)c2ccc(OCc3ccccc3)cc21` (stereo not drawn) [Example 58, 3-(1-Oxide-pyridin-3-yl)-7-(1-methyl-6-phenylmethoxyindol-3-ylcarbonyl)-1H,3H-pyrrolo[1,2-c]thiazole], the Ki came to 49 nM.

In the case of `CN(C)S(=O)(=O)n1cc(C(=O)c2ccn3c2CSC3c2ccc[n+]([O-])c2)c2ccc(-c3ccc(F)cc3)cc21` (stereo not drawn) [Example 60, 3-(1-Oxide-pyridin-3-yl)-7-[1-N,N-dimethylsulfamyl-6-(4-fluorophenyl)indol-3-ylcarbonyl]-1H,3H-pyrrolo[1,2-c]thiazole], the Ki was 210 nM. The same measure, in the same setting: then `O=C(c1ccn2c1CSC2c1cccnc1)c1cn(S(=O)(=O)c2ccccc2)c2cc(-c3ccc(F)cc3)ccc12` (stereo not drawn) [Example 61, 3-(Pyridin-3-yl)-7-[1-phenylsulfonyl-6-(4-fluorophenyl)indol-3-ylcarbonyl]-1H,3H-pyrrolo[1,2-c]thiazole], with 1100 nM. With `O=C(c1ccn2c1CSC2c1cccnc1)c1cn(C(=O)NCCO)c2cc(-c3ccc(F)cc3)ccc12` (stereo not drawn) [Example 62, 3-(Pyridin-3-yl)-7-[1-N-(2-hydroxyethyl)carbamoyl-6-(4-fluorophenyl)indol-3-ylcarbonyl]-1H,3H-pyrrolo[1,2-c]thiazole], the Ki came to 7.4 nM. Still for that read-out and setting: then `O=C(c1ccn2c1CSC2c1cccnc1)c1c[nH]c2cc(Br)ccc12` (stereo not drawn) [Example 63, 3-(Pyridin-3-yl)-7-(6-bromoindol-3-ylcarbonyl)-1H,3H-pyrrolo[1,2-c]thiazol], with 580 nM. Regarding `CN(C)C(=O)n1cc(C(=O)c2ccn3c2CSC3c2cccnc2)c2ccc(Cl)cc21` (stereo not drawn) [Example 65, 3-(Pyridin-3-yl)-7-(1-N,N-dimethylcarbamoyl-6-chloroindol-3-ylcarbonyl)-1H,3H-pyrrolo[1,2-c]thiazole], the Ki is 89 nM. Take `CN(C)C(=O)n1cc(C(=O)c2ccn3c2CSC3c2ccc[n+]([O-])c2)c2ccc(Cl)cc21` (stereo not drawn) [Example 66, 3-(1-Oxide-Pyridin-3-yl)-7-(1-N,N-dimethylcarbamoyl-6-chloroindol-3-ylcarbonyl)-1H,3H-pyrrolo[1,2-c]thiazole]: the Ki was 38 nM. Same read-out and setting: then `NNC(=O)n1cc(C(=O)c2ccn3c2CSC3c2cccnc2)c2ccc(-c3ccc(F)cc3)cc21` (stereo not drawn) [Example 69, 3-(Pyridin-3-yl)-7-[1-hydrazinocarbonyl-6-(4-fluorophenyl)indol-3-ylcarbonyl]-1H,3H-pyrrolo[1,2-c]thiazole], with 25 nM; and `CCS(=O)(=O)n1cc(C(=O)c2ccn3c2CSC3c2cccnc2)c2ccc(-c3ccc(F)cc3)cc21` (stereo not drawn) [Example 71, 3-(Pyridin-3-yl)-7-[1-ethanesulfonyl-6-[4-fluorophenyl)indol-3-ylcarbonyl]-1H,3H-pyrrolo[1,2-c]thiazole], with 244 nM; and `O=C(c1ccn2c1CSC2c1ccc[n+]([O-])c1)c1cn(S(=O)(=O)c2ccccc2)c2cc(-c3ccc(F)cc3)ccc12` (stereo not drawn) [Example 73, 3-(1 -Oxide-pyridin-3-yl)-7-[1-phenylsulfonyl-6-(4-fluorophenyl)indol-3-ylcarbonyl]-1H,3-pyrrolo[1,2-c]thiazole], with 211 nM. Still for that read-out and setting: then `CN(C)C(=O)Cn1cc(C(=O)c2ccn3c2CSC3c2ccc[n+]([O-])c2)c2ccc(-c3ccc(F)cc3)cc21` (stereo not drawn) [Example 75, 3-(1-Oxide-pyridin-3-yl)-7-[1-(2-N,N-dimethylcarbamoylmethyl)-6-(4-fluorophenyl)indol-3-ylcarbonyl]-1H,3H-pyrrolo[1,2-c]thiazole], with 7.5 nM.
